Assay results published in ChEMBL document CHEMBL1681742, “Novel second generation analogs of eribulin. Part I: Compounds containing a lipophilic C32 side chain overcome P-glycoprotein susceptibility” (Bioorg Med Chem Lett, 2011).
The source made the active and inactive calls. No cut-off for these calls is given here.

Columns and labels:
LOX [1] = assay: Antitumor activity against human LOX cells xenografted in athymic mouse assessed as inhibition of tumor growth at 0.1 mg/kg, iv qd administered 5 days a week for 2 weeks measured up to 2 weeks; format: functional, organism-based; parameters: dose 0.1 mg/kg
[2] = Antiproliferative activity against human MES-SA cells assessed as growth inhibition; format: functional, cell-based
DLD-1 = assay: Antiproliferative activity against human DLD1 cells assessed as growth inhibition; format: functional, cell-based
[3] = Fold resistance, ratio of IC50 for antiproliferative activity for P-gp overexpressing human MES-SA/Dx5-Rx1cells to IC50 for antiproliferative activity for human MES-SA cells
HCT-15 = assay: Antiproliferative activity against human HCT15 cells assessed as growth inhibition; format: functional, cell-based
[4] = Antiproliferative activity against P-gp overexpressing human MES-SA/Dx5-Rx1 cells assessed as growth inhibition; format: functional
[5] = Cytotoxicity against human IMR90 cells up to 1 uM; format: cell-based; settings: imr-90
LOX [6] = assay: Antitumor activity against human LOX cells xenografted in athymic mouse assessed as inhibition of tumor growth at 0.1 mg/kg, iv qd administered 5 days a week for 2 weeks measured after 2 weeks; format: functional, organism-based; parameters: dose 0.1 mg/kg
Mus musculus [7] = assay: Toxicity in athymic mouse xenografted with human LOX cells assessed as body weight loss at 0.1 mg/kg, iv qd administered 5 days a week for 2 weeks; format: organism-based; parameters: dose 0.1 mg/kg, route intravenous; settings: in vivo
Mus musculus [8] = assay: Toxicity in athymic mouse xenografted with human LOX cells assessed as reduction in water uptake at 0.1 mg/kg, iv qd administered 5 days a week for 2 weeks; format: organism-based; parameters: dose 0.1 mg/kg, route intravenous; settings: in vivo

In the case of `C=C1C[C@@H]2CC[C@@]34C[C@H]5O[C@H]6[C@@H](O3)[C@H]3O[C@H](CC[C@@H]3O[C@H]6[C@H]5O4)CC(=O)C[C@@H]3[C@@H](OC)[C@@H](C[C@H](O)CN)O[C@H]3C[C@H]3O[C@@H](CC[C@@H]1O2)C[C@@H](C)C3=C` [ERIBULIN], the Activity (LOX [1]) is reported as “Active”, the IC50 [2] is reported as 1.66 nM and the IC50 (DLD-1) is reported as 20 nM. The “Ratio IC50” value [3] was 1842, the IC50 (HCT-15) was 204 nM and the IC50 [4] was 3060 nM. For the same compound, the Activity [5] was “Non-toxic”.
With `C=C1C[C@@H]2CC[C@@]34C[C@H]5O[C@H]6[C@@H](O3)[C@H]3O[C@H](CC[C@@H]3O[C@H]6[C@H]5O4)CC(=O)C[C@@H]3[C@@H](OC)[C@@H](C[C@H](O)COCC)O[C@H]3C[C@H]3O[C@@H](CC[C@@H]1O2)C[C@@H](C)C3=C` the IC50 [2] was 0.2 nM, the IC50 (DLD-1) was 0.27 nM and the “Ratio IC50” value [3] was 11.2. For the same compound, the IC50 (HCT-15) was 0.23 nM, the IC50 [4] was 2.24 nM and the Activity [5] was “Non-toxic”.
For `C=C1C[C@@H]2CC[C@@]34C[C@H]5O[C@H]6[C@@H](O3)[C@H]3O[C@H](CC[C@@H]3O[C@H]6[C@H]5O4)CC(=O)C[C@@H]3[C@@H](OC)[C@@H](C[C@H](O)COC)O[C@H]3C[C@H]3O[C@@H](CC[C@@H]1O2)C[C@@H](C)C3=C`, the Activity (LOX [1]) was “Active”, the IC50 [2] was 0.17 nM and the IC50 (DLD-1) was 0.27 nM. For the same compound, the Activity (LOX [6]) was “inactive”, the “Ratio IC50” value [3] was 17.09 and the IC50 (HCT-15) was 0.2 nM. For the same compound, the IC50 [4] was 2.82 nM, the Activity [5] was “Non-toxic” and the Activity (Mus musculus [7]) was “Non-toxic”. The Activity (Mus musculus [8]) was “Non-toxic”.
For `C=C1C[C@@H]2CC[C@@]34C[C@H]5O[C@H]6[C@@H](O3)[C@H]3O[C@H](CC[C@@H]3O[C@H]6[C@H]5O4)CC(=O)C[C@@H]3[C@@H](OC)[C@@H](C[C@@H](COC)OC)O[C@H]3C[C@H]3O[C@@H](CC[C@@H]1O2)C[C@@H](C)C3=C`, the Activity (LOX [1]) was “Active”, the IC50 [2] was 0.24 nM and the IC50 (DLD-1) was 0.36 nM. The Activity (LOX [6]) was “inactive”, the “Ratio IC50” value [3] was 7.76 and the IC50 (HCT-15) was 0.21 nM. The IC50 [4] was 1.86 nM, the Activity [5] was “Non-toxic” and the Activity (Mus musculus [7]) was “Non-toxic”. The Activity (Mus musculus [8]) was “Non-toxic”.
With `C=C1C[C@@H]2CC[C@@]34C[C@H]5O[C@H]6[C@@H](O3)[C@H]3O[C@H](CC[C@@H]3O[C@H]6[C@H]5O4)CC(=O)C[C@@H]3[C@@H](OC)[C@@H](C[C@@H](CO)OC)O[C@H]3C[C@H]3O[C@@H](CC[C@@H]1O2)C[C@@H](C)C3=C` the IC50 [2] was 0.3 nM, the IC50 (DLD-1) was 0.75 nM and the “Ratio IC50” value [3] was 37.73. The IC50 (HCT-15) was 0.67 nM, the IC50 [4] was 11.3 nM and the Activity [5] was “Non-toxic”.
In the case of `C=C1C[C@@H]2CC[C@@]34C[C@H]5O[C@H]6[C@@H](O3)[C@H]3O[C@H](CC[C@@H]3O[C@H]6[C@H]5O4)CC(=O)C[C@@H]3[C@@H](OC)[C@@H](CC(=O)OC)O[C@H]3C[C@H]3O[C@@H](CC[C@@H]1O2)C[C@@H](C)C3=C`, the IC50 [2] is reported as 0.35 nM, the IC50 (DLD-1) is reported as 0.83 nM and the “Ratio IC50” value [3] is reported as 4.23. The IC50 (HCT-15) was 0.44 nM, the IC50 [4] was 1.48 nM and the Activity [5] was “Non-toxic”.
